Measured values published in patent US20240016795A1, “BROMODOMAIN INHIBITORS FOR ANDROGEN RECEPTOR-DRIVEN CANCERS” (FORMA Therapeutics, Inc., priority 2020, published 2024).
Like-named read-outs stand apart in the source and are kept apart here.

Experiments:
[1] = test system: SPDEF; test: qPCR gene expression in VCaP, SPDEF; format: cell-based; details: Homo sapiens, 24 h
Procedure: (§1) RNA was extracted using Qiacube RNAeasy Mini (Qiagen). For all genes tested, the qPCR reactions were carried out in triplicate with 250 ng RNA per reaction and Taqman® primer-probes. GAPDH was used as a housekeeping gene.

[2] = test system: LNCaP; test: 10-day prostate cancer cell proliferation assay, LNCaP; format: cell-based; details: Homo sapiens, LNCaP, 240 h; 10 days exposure; T878A/WT, androgen-dependent
Procedure: (§2) Prostate cell lines were obtained from ATCC or DSMZ and cultured according to the distributor's recommendations. Prostate cancer cells were plated and incubated overnight. […] Cell viability was assessed using a CellTiter-Glo® assay (Promega) after 10 days drug exposure. The growth inhibitory effect was assessed by the concentration inhibiting growth by 50% using a nonlinear regression equation and a variable slope (Graphpad Prism).

[3] = test system: HCC1500; test: 10-day CellTiter-Glo antiproliferative assay, HCC1500; format: cell-based; details: HCC1500, 240 h, 10-day exposure, AR High, ER +, Her2 −
Procedure: (§3) Breast cell lines were cultured according to the distributor's recommendations. The following day, cells were exposed to compounds up to 10 days. Cell viability was assessed using a CellTiter-Glo® assay (Promega) at the end of the incubation period. The growth inhibitory effect was assessed by the concentration inhibiting growth by 50% using a nonlinear regression equation and a variable slope (Graphpad Prism). The mRNA expression levels for the androgen receptor (HUGO: AR) was determined from the DepMap Portal database (release 19Q2).

[4] = test system: MDA-MB-231; test: 10-day CellTiter-Glo antiproliferative assay, MDA-MB-231; format: cell-based; details: Homo sapiens, MDA-MB-231, 240 h, 10-day exposure, AR Low, ER −, Her2 −
Procedure: as §3

[5] = test system: MYC; test: qPCR gene expression in VCaP, MYC; format: cell-based; details: Homo sapiens, 24 h
Procedure: as §1

[6] = test system: SPDEF; test: qPCR gene expression in 22Rv1, SPDEF; format: cell-based; details: Homo sapiens, 22Rv1, 24 h
Procedure: as §1

[7] = test system: MDA-MB-453; test: 10-day CellTiter-Glo antiproliferative assay, MDA-MB-453; format: cell-based; details: Homo sapiens, MDA-MB-453, 240 h; 10-day exposure, CellTiter-Glo; AR High, ER −, Her2 +/−; read-out: IC50 (μM), MDA-MB-453
Procedure: as §3

[8] = test system: FKBP5; test: qPCR gene expression in VCaP, FKBP5; format: cell-based; details: Homo sapiens, 24 h
Procedure: as §1

[9] = test system: patient-derived xenograft (PDX) model of AR+ prostate cancer sensitive to enzalutamide; test: Patient-derived xenograft of prostate cancer sensitive to enzalutamide; format: in vivo, NOG mice; details: Compound 1 40 mg/kg/day, enzalutamide 20 mg/kg/day
Procedure: The antitumor activity was determined based by tumor volume during the course of the study.
Male NOG mice (6-8 weeks of age) were implanted with tumor fragments. When tumors reached an average tumor volume of 150-200 mm^3 animals were randomized into different cohort groups and dosing initiated on the same day (Day 0). Animals were weighed twice weekly.
[…] 11.

[10] = test system: PC-3; test: 10-day prostate cancer cell proliferation assay, PC-3; format: cell-based; details: Homo sapiens, PC-3, 240 h; 10 days exposure; AR negative
Procedure: as §2

[11] = test system: TMPRSS2; test: qPCR gene expression in AR-v7+ prostate cancer cells, TMPRSS2; format: cell-based; details: 24 h
Procedure: AR-v7+ prostate cancer cells were exposed to compounds 1, 2, 3, or 4 for 24 h. RNA was extracted and gene expression was measured by qPCR using Taqman® primer-probes. GAPDH was used as a housekeeping gene.

[12] = test system: MFM223; test: 10-day CellTiter-Glo antiproliferative assay, MFM223; format: cell-based; details: Homo sapiens, MFM-223, 240 h, 10-day exposure, AR Low, ER −, Her2 −
Procedure: as §3

[13] = test system: 22Rv1; test: 10-day prostate cancer cell proliferation assay, 22Rv1; format: cell-based; details: Homo sapiens, 22Rv1, 240 h
Procedure: as §2

[14] = test system: TMPRSS2; test: qPCR gene expression in 22Rv1, TMPRSS2; format: cell-based; details: Homo sapiens, 22Rv1, 24 h
Procedure: as §1

[15] = test system: FKBP5; test: qPCR gene expression in 22Rv1, FKBP5; format: cell-based; details: Homo sapiens, 22Rv1, 24 h
Procedure: as §1

[16] = test system: AR+ prostate cancer cell lines (LnCaP, VCaP, 22Rv1); test: 10-day proliferation assay, all AR+ prostate cancer cell lines; format: cell-based; details: 240 h; 10-day assay; read-out: growth inhibitory effect (IC50), all AR+ cell lines
Procedure: Two AR-negative prostate cancer cell lines DU145 and PC-3 were also evaluated.
as §2

[17] = test system: AR+ triple negative breast cancer xenograft; test: AR+ triple negative breast cancer cell line derived xenograft; format: in vivo, NOD SCID mice; details: 50 mg/kg orally daily
Procedure: Briefly, AR-positive breast cancer tumor cells (1×107) were implanted subcutaneously in the flank of 6-8-week-old NOD SCID mice. Mice were randomized, and treatment started when mean tumor size reached 160 mm^3 (8 mice per cohort). […] Tumor volume (TV) was measured twice weekly by caliper and the tumor volume (mm^3) calculated as follows: TV=a×b×b/2, where “a” and “b” are long and short diameters of a tumor, respectively.
The average body weight loss was 3.7%.
The study was completed using methods analogous to those described in Example 7, above.
Three dosing cycles were completed for mice within these cohorts.
Mice in the 30 mg/kg cohort were dosed daily for three weeks.
Tumor volume was assessed at Day 14, Day 17, Day 21, Day 24, and Day 27 of the study.

[18] = test system: DU 145; test: 10-day prostate cancer cell proliferation assay, DU 145; format: cell-based; details: Homo sapiens, DU-145, 240 h; 10 days exposure; AR negative
Procedure: as §2

[19] = test system: CAL148; test: 10-day CellTiter-Glo antiproliferative assay, CAL148; format: cell-based; details: Homo sapiens, CAL-148, 240 h, 10-day exposure, AR Low, ER −, Her2 −
Procedure: as §3

[20] = test system: VCaP; test: 10-day prostate cancer cell proliferation assay, VCaP; format: cell-based; details: Homo sapiens, VCaP, 240 h; 10 days exposure; WT, AR amplification, androgen-dependent
Procedure: as §2

[21] = test system: SORD; test: qPCR gene expression in 22Rv1, SORD; format: cell-based; details: Homo sapiens, 22Rv1, 24 h
Procedure: as §1

[22] = test system: HCC1187; test: 10-day CellTiter-Glo antiproliferative assay, HCC1187; format: cell-based; details: Homo sapiens, HCC1187, 240 h, 10-day exposure, AR High, ER −, Her2 −
Procedure: as §3

[23] = test system: TMPRSS2; test: qPCR gene expression in VCaP, TMPRSS2; format: cell-based; details: Homo sapiens, 24 h
Procedure: as §1

COC(=O)N1c2ccc3c(nc([C@H](O)c4cc(F)ccc4OC)n3[C@@H]3CCC[C@@H](C(=O)O)C3)c2CC[C@@H]1C [Compound 1, (1R,3R)-3-[(7S)-2-[(R)-(5-fluoro-2-methoxyphenyl)(hydroxy)methyl]-6-(methoxycarbonyl)-7-methyl-3H,6H,7H,8H,9H-imidazo[4,5-f]quinolin-3-yl]cyclohexane-1-carboxylic acid]
IC50 [1]: > 0.1 µM | IC50 [2]: > 1000 nM | IC50 [3]: 0.5 to 1 µM | IC50 [4]: > 1 µM | IC50 [5]: 0.05 to 0.1 µM | IC50 [6]: > 0.1 µM | IC50 [7]: < 0.2 µM | IC50 [8]: > 0.1 µM | AR target gene SPDEF expression in tumor ([9]; four days): reduced | H3K27Ac in tumor ([9]; four days): reduction of H3K27Ac | TGI at the end of study ([9]; start of dosing to day 59): comparable | IC50 [10]: > 1000 nM | IC50 [11]: < 10 nM | IC50 [12]: > 1 µM | IC50 ([13]; 10-day assay, read-out: anti-proliferative effect (IC50), 22Rv1): 500 to 1000 nM | IC50 ([13]; 10 days exposure, H857Y/H857Y, AR v7+, androgen-independent, read-out: IC50, 22Rv1): 500 to 1000 nM | IC50 [14]: < 0.01 µM | IC50 [15]: > 0.1 µM | IC50 [16]: 500 to 1500 nM | average body weight loss [17]: 3.7% | tumor growth inhibition (TGI) ([17]; end of treatment, versus vehicle control): 104% | IC50 [18]: > 1000 nM | IC50 [19]: > 1 µM | IC50 [20]: 500 to 1000 nM | IC50 [21]: > 0.1 µM | IC50 [22]: 0.2 to 0.5 µM | IC50 [23]: 0.01 to 0.05 µM
